The target of assay [1] is T1, Prostaglandin G/H synthase 1 (Ovis aries, UniProt P05979).
T1 sequence (P05979 whole entry): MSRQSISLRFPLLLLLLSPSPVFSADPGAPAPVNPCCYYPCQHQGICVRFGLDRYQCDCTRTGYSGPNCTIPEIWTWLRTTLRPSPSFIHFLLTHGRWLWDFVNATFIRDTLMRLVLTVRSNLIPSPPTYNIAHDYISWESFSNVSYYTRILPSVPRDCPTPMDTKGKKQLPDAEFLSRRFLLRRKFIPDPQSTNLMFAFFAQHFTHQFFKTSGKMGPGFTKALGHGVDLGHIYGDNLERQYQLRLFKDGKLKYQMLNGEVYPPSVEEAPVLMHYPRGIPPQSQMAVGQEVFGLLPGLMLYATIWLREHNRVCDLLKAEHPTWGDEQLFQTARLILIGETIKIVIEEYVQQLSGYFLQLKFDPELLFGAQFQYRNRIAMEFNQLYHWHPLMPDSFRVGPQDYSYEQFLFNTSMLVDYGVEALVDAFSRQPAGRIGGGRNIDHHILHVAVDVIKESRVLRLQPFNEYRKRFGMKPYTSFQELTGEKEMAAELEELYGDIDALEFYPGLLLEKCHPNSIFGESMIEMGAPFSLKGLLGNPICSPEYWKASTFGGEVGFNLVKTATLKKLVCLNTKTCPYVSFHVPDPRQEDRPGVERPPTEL

The target of assay [2] is T2, Prostaglandin G/H synthase 2 (Homo sapiens, UniProt P35354).
T2 sequence (P35354 whole entry): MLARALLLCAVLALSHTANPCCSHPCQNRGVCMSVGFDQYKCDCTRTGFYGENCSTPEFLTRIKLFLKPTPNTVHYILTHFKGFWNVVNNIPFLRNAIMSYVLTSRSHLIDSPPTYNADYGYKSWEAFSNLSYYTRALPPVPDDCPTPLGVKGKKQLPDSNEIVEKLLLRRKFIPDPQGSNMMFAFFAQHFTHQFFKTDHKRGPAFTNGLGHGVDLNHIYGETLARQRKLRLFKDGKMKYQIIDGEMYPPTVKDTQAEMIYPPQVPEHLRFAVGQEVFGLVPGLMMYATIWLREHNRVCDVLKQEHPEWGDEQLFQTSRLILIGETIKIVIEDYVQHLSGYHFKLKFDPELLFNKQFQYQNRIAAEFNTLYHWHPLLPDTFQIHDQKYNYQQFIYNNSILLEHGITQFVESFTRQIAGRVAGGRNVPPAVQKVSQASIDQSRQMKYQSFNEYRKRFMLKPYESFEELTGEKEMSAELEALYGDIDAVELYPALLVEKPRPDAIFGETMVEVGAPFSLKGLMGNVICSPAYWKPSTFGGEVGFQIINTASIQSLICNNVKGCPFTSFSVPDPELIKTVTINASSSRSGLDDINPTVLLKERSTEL

Some results are limits rather than exact numbers.

As usually defined, the IC50 is the point on the concentration scale where inhibition reaches its midpoint. Lower therefore signals inhibition by little substance. `COc1ccc2c(c1)c(CC(=O)N(C)C)c(C)n2C(=O)c1ccc(Cl)cc1`: the IC50 in assay [1] is > 66 µM. As to `COc1ccc2c(c1)c(CC(=O)OCCc1ccccc1)cn2C(=O)c1ccc(Cl)cc1`, the IC50 in assay [2] and in assay [1] was > 66 µM in each case.

`COc1ccc2c(c1)c(CC(=O)Nc1ncc(C)s1)c(C)n2C(=O)c1ccc(Cl)cc1`: the concentration for half-maximal inhibition (IC50) in assay [1] was > 66 µM. Turning to `COc1ccc2c(c1)c(CC(=O)Nc1cc(C)c(C(=O)Nc3ccccc3)cc1OC)c(C)n2C(=O)c1ccc(Cl)cc1`, the IC50 in assay [2] was found to be 0.6 µM; in assay [1] it was 17 µM. The corresponding values for `COc1ccc2c(c1)c(CC(=O)NOCc1ccccc1)c(C)n2C(=O)c1ccc(Cl)cc1` are 0.05 µM and 0.06 µM. For `COc1ccc2c(c1)c(CC(=O)Nc1cccnc1Cl)c(C)n2C(=O)c1ccc(Cl)cc1`, in that order: 0.05 µM and 45 µM.

For `COc1ccc2c(c1)c(CC(=O)Nc1cc(OC)c(OC)c(OC)c1)c(C)n2C(=O)c1ccc(Cl)cc1`, the IC50 in assay [2] was > 1 µM; in assay [1] it was > 66 µM. For `CCN(CC)C(=O)Cc1c(C)n(C(=O)c2ccc(Cl)cc2)c2ccc(OC)cc12`, in that order: 25 µM and > 66 µM. The corresponding values for `COc1ccc2c(c1)c(CC(=O)N1CCOCC1)c(C)n2C(=O)c1ccc(Cl)cc1` [INDOMETHACIN MORPHOLINYLAMIDE] are > 33 µM and > 66 µM.

In assay [2], `COc1ccc2c(c1)c(CC(=O)OCCc1ccccc1)c(C)n2C(=O)c1ccc(Cl)cc1` returned an IC50 of 0.04 µM. Same read-out and setting: then `COC(=O)[C@@H](C)NC(=O)Cc1c(C)n(C(=O)c2ccc(Cl)cc2)c2ccc(OC)cc12`, with 0.4 µM. Take `COc1ccc2c(c1)c(CC(=O)NCCOC(=O)/C=C/c1ccc(N(C)C)cc1)c(C)n2C(=O)c1ccc(Cl)cc1`: the IC50 in assay [1] is > 66 µM. With `COc1ccc2c(c1)c(CC(=O)Nc1ccc(C(N)=O)cc1)c(C)n2C(=O)c1ccc(Cl)cc1`, the IC50 in assay [2] was 0.14 µM; in assay [1], > 66 µM. For `COc1ccc2c(c1)c(CC(=O)NNCc1ccccc1)c(C)n2C(=O)c1ccc(Cl)cc1`, in that order: 2.5 µM and > 66 µM. The corresponding values for `COc1ccc2c(c1)c(CC(=O)Nc1cncc(Cl)c1)c(C)n2C(=O)c1ccc(Cl)cc1` are 0.047 µM and > 66 µM.

Take `COc1ccc2c(c1)c(CC(=O)Oc1cccc3ccccc13)c(C)n2C(=O)c1ccc(Cl)cc1`: the IC50 in assay [2] is 5 µM; in assay [1], > 66 µM. The corresponding values for `COc1ccc2c(c1)c(CC(=O)NOCc1ccc([N+](=O)[O-])cc1)c(C)n2C(=O)c1ccc(Cl)cc1` are 0.06 µM and 4 µM. The corresponding values for `COc1ccc2c(c1)c(CC(=O)NCCc1ccccc1)cn2C(=O)c1ccc(Cl)cc1` are > 66 µM and > 66 µM.

As to `COc1ccc2c(c1)c(CC(=O)OCCNC(=O)OC(C)(C)C)c(C)n2C(=O)c1ccc(Cl)cc1`, the IC50 in assay [2] is 0.045 µM; in assay [1], > 66 µM.
